Measurements reported in BindingDB's records for PubMed 35123298 (Comsats University Islamabad, 2022).
pEC50: −log10 of the molar value.

What was measured:
[1] = Negative allosteric modulation activity at human P2X7 receptor expressed in human 1321N1 cells assessed as ATP induced calcium response by measuring ATP EC50 at 200 nM
[2] = Negative allosteric modulation activity at human P2X7 receptor expressed in human 1321N1 cells assessed as ATP induced calcium response by measuring ATP EC50 at 40 nM
[3] = Negative allosteric modulation activity at human P2X7 receptor expressed in human 1321N1 cells assessed as ATP induced calcium response by measuring ATP EC50 at 100 nM
[4] = Negative allosteric modulation activity at human P2X4 receptor expressed in human 1321N1 cells assessed as ATP induced calcium response by measuring ATP EC50 at 100 nM
[5] = Negative allosteric modulation activity at human P2X4 receptor expressed in human 1321N1 cells assessed as ATP induced calcium response by measuring ATP EC50 at 200 nM
[6] = Negative allosteric modulation activity at human P2X4 receptor expressed in human 1321N1 cells assessed as ATP induced calcium response by measuring ATP EC50 at 40 nM

Row | SMILES | pEC50 [1] | pEC50 [2] | pEC50 [3] | pEC50 [4] | pEC50 [5] | pEC50 [6]
1 | O=C(NC(=S)Nc1cccc2cccnc12)C12CC3CC(CC(C3)C1)C2 | 5.66 | 5.18 | 5.22 | – | – | –
2 | CC(C)c1ccc(NC(=S)NC(=O)C23CC4CC(CC(C4)C2)C3)c(Br)c1 | – | – | – | 5.05 | 4.91 | 5.00
